Measurements taken from paper PMC12045974, “T cell toxicity induced by tigecycline binding to the mitochondrial ribosome” (Nature Communications, 2025).
Several values for one entry are separate records, joined by “and”; a condition that tells them apart may be missing. Equal values may be shown once. Read-outs that look alike come from different tables or passages of the source.

Experiments:
[1] = tested on: Jurkat T cells; experiment: Cell viability assay (CCK-8), Jurkat T cells; format: cell-based, human; conditions: 72 h; for cell vialibity normalized to Vehicle (DMSO): Jurkat, Fig. 1A, in % (unit assumed)
Outline: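 This CCK-8 viability assay used Jurkat T cells seeded at 6000 per well and grown in supplemented RPMI-1640, 100 μl per well. Antibiotic stocks in DMSO were diluted in medium to give 9 concentrations, and untreated wells received matching DMSO. After treatment, cells were incubated with 10% CCK-8 for 3 h. Results were normalized to vehicle, technical repeats were plotted as mean ± SEM, and IC50 values were derived.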

[2] = tested on: HeLa cells; experiment: Cell viability assay (CCK-8), HeLa cells; format: cell-based; conditions: 10 μM
Outline: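 Viability of HeLa cells was measured with Cell Counting Kit-8 after treatment with drug dilutions in 96-well plates (2000 cells/well, DMEM plus 10% FBS and 2.05 mM L-glutamine, humidified 37 °C, 5% CO2). Untreated wells received equal DMSO. After 1 h CCK-8 incubation, technical-repeat dose-response curves were plotted and IC50 values calculated in GraphPad Prism.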

[3] = tested on: PBMCs; experiment: Cell viability assay (CCK-8), PBMCs; format: cell-based, human; conditions: 72 h
Outline: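 Buffy-coat PBMCs were seeded at 15,000 cells/well in RPMI-1640 with 10% FBS, 2.05 mM L-glutamine and 55 μM 2-ME. Cells were exposed for 72 h at 37 °C, 5% CO2 to 9 concentrations, up to 300 μM for tetracyclines and up to 900 μM for other inhibitors, with DMSO controls. CCK-8 read after 4 h; IC50 from dose-response curves.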

[4] = tested on: mitochondrial translation; experiment: 35S metabolic labeling, de novo mitochondrial translation assay in Jurkat T cells; format: cell-based, human; conditions: 5 μM, 18 h of treatment
Description: Jurkat T cells were seeded in 6-well plates at a density of 1 million cells/ml and cultured with different concentrations of antibiotics for 18 h in RPMI-1640 medium (with 10% FBS, 2.05 mM L-glutamine (Sigma), and 55 μM 2-ME (Gibco)). After centrifugation, cells were incubated twice for 5 min at 37 °C in Cys-/Met-free medium (DMEM, high glucose, no glutamine, no methionine, no cysteine, supplemented with 10% dialyzed fetal bovine serum, 1× GlutaMax, and sodium pyruvate), followed by 20 min incubation at 37 °C in Cys-/Met-free medium supplemented with 100 µg/ml emetine to inhibit cytosolic translation (only for mitochondrial translation groups). Subsequently, 1 ml Cys-/Met-free medium supplemented with 200 (for cytosolic translation) or 400 µCi (for mitochondrial translation) of EasyTag EXPRESS [^35S] protein labeling mix (methionine and cysteine) (Perkin Elmer) were added to each sample and incubated for 20 min at 37 °C, 5% CO2. Following labeling, cells were washed three times with 1 ml PBS, harvested by centrifugation (400 × g, 10 min, 4 °C), and stored at −20 °C. Cells were lysed by resuspension in 30 µl PBS supplemented with a Complete EDTA-free protease inhibitor cocktail and 50 U Benzonase nuclease (Sigma) and by application of one freeze-thaw cycle. Protein contents were determined by Pierce BCA assay (Thermo Fisher). […]

[5] = Homo sapiens, PBMC, PBMCs, Fig. 1A, read-out: cell vialibity normalized to Vehicle (DMSO)
[6] = Homo sapiens, PBMC, PBMCs, Fig. 1B, read-out: cell vialibity normalized to Vehicle (DMSO)

Structure (SMILES): CN(C)c1cc(NC(=O)CNC(C)(C)C)c(O)c2c1C[C@H]1C[C@H]3[C@H](N(C)C)C(O)=C(C(N)=O)C(=O)[C@@]3(O)C(O)=C1C2=O [Tigecycline, tigecycline]
- IC50 ([1]; Homo sapiens, Jurkat T cells, after 3 days of treatment, read-out: IC50 (cell survival)): 2.94 to 3.08 µM
- cell vialibity normalized to Vehicle (DMSO) ([1]; dose 0.0457247 μM): 109.956 and 111.249 and 111.849
- cell vialibity normalized to Vehicle (DMSO) ([1]; dose 0.137174 μM): 103.553 and 105.77 and 101.862
- cell vialibity normalized to Vehicle (DMSO) ([1]; dose 0.411523 μM): 97.7193 and 94.1885 and 95.1333
- cell vialibity normalized to Vehicle (DMSO) ([1]; dose 1.23457 μM): 79.9123 and 80.3238 and 79.0851
- cell vialibity normalized to Vehicle (DMSO) ([1]; dose 3.7037 μM): 38.8158 and 37.5675 and 38.722
- cell vialibity normalized to Vehicle (DMSO) ([1]; dose 11.1111 μM): 18.2456 and 17.144 and 16.3775
- cell vialibity normalized to Vehicle (DMSO) ([1]; dose 33.3333 μM): 11.1842 and 10.0457 and 10.0296
- cell vialibity normalized to Vehicle (DMSO) ([1]; dose 100 μM): 4.123 and 3.321 and 4.232
- cell vialibity normalized to Vehicle (DMSO) ([1]; dose 300 μM): 2.237 and 2.989 and 2.158
- HeLa cell survival [2]: relatively resistant
- toxicity to PBMCs in comparison with other bacterial protein synthesis inhibitors ([3]; Fig. 1B): greatest toxicity to PBMCs
- viability at 0.137174 µM ([3]; Homo sapiens, PBMC, PBMCs, dose 0.137174 μM, Fig. 1B, read-out: cell vialibity normalized to Vehicle (DMSO)): 103%
- viability at 0.411523 µM [3, 5]: 83.9%
- viability at 0.411523 µM [3, 6]: 89.9%
- viability at 1.23457 µM [3, 5]: 75.3%
- viability at 1.23457 µM [3, 6]: 65.1%
- viability at 3.7037 µM ([3]; Homo sapiens, PBMC, PBMCs, dose 3.7037 μM, Fig. 1B, read-out: cell vialibity normalized to Vehicle (DMSO)): 39.4%
- viability at 11.1111 µM ([3]; Homo sapiens, PBMC, PBMCs, dose 11.1111 μM, Fig. 1A, read-out: cell vialibity normalized to Vehicle (DMSO)): 44.2%
- viability at 33.3333 µM [3, 5]: 38.8%
- viability at 33.3333 µM [3, 6]: 21.2%
- viability at 100 µM [3, 5]: 20.8%
- viability at 100 µM [3, 6]: 17.6%
- IC50 ([3]; Homo sapiens, PBMC, PBMCs, after 3 days of treatment, read-out: IC50 (cell survival)): 2.02 to 9.42 µM
- inhibition of mitochondrial translation [4]: inhibited mitochondrial translation
